Source: patent publication US10194660B2, “Herbicidal compounds” (Syngenta Participations AG, priority 2015, dated 2019)

Key:
Assay type in all cases: in vivo
[1] = system: Echinochloa crus-galli (ECHCG); assay: Post-emergence herbicidal glasshouse test; conditions: evaluated after 13 days, five point scale
Procedure: (§1) Seeds of a variety of test species are sown in standard soil in pots (Lolium perenne (LOLPE), Solanum nigrum (SOLNI), Amaranthus retoflexus (AMARE), Setaria faberi (SETFA), Echinochloa crus-galli (ECHCG), Ipomoea hederacea (IPOHE)). After cultivation for one day (pre-emergence) or after 8 days cultivation (post-emergence) under controlled conditions in a glasshouse (at 24/16° C., day/night; 14 hours light; 65% humidity), the plants are sprayed with an aqueous spray solution derived from the formulation of the technical active ingredient in acetone/water (50:50) solution containing 0.5% Tween 20 (polyoxyethelyene sorbitan monolaurate, CAS RN 9005-64-5). Compounds are applied at 500 g/h unless otherwise stated. The test plants are then grown in a glasshouse under controlled conditions in a glasshouse (at 24/16° C., day/night; 14 hours light; 65% humidity) and watered twice daily. After 13 days for pre and post-emergence, the test is evaluated for the percentage damage caused to the plant. The biological activities are shown in the following table on a five point scale (5=80-100%; 4=60-79%; 3=40-59%; 2=20-39%; 1=0-19%).

[2] = system: Amaranthus retoflexus (AMARE); assay: Post-emergence herbicidal glasshouse test; conditions: evaluated after 13 days, five point scale
Procedure: as §1

[3] = system: Ipomoea hederacea (IPOHE); assay: Post-emergence herbicidal glasshouse test; conditions: evaluated after 13 days, five point scale
Procedure: as §1

Solanum nigrum (SOLNI) [4] = assay: Post-emergence herbicidal glasshouse test; conditions: applied at 250 g/ha, evaluated after 13 days, five point scale
Procedure: as §1

Setaria faberi (SETFA) [5] = assay: Post-emergence herbicidal glasshouse test; conditions: evaluated after 13 days, five point scale
Procedure: as §1

Lolium perenne (LOLPE) [6] = assay: Post-emergence herbicidal glasshouse test; conditions: applied at 250 g/ha, evaluated after 13 days, five point scale
Procedure: as §1

[7] = system: Echinochloa crus-galli (ECHCG); assay: Pre-emergence herbicidal glasshouse test; conditions: evaluated after 13 days, five point scale
Procedure: as §1

[8] = system: Amaranthus retoflexus (AMARE); assay: Pre-emergence herbicidal glasshouse test; conditions: evaluated after 13 days, five point scale
Procedure: as §1

[9] = system: Ipomoea hederacea (IPOHE); assay: Pre-emergence herbicidal glasshouse test; conditions: evaluated after 13 days, five point scale
Procedure: as §1

Solanum nigrum (SOLNI) [10] = assay: Pre-emergence herbicidal glasshouse test; conditions: applied at 250 g/ha, evaluated after 13 days, five point scale
Procedure: as §1

Setaria faberi (SETFA) [11] = assay: Pre-emergence herbicidal glasshouse test; conditions: evaluated after 13 days, five point scale
Procedure: as §1

Lolium perenne (LOLPE) [12] = assay: Pre-emergence herbicidal glasshouse test; conditions: applied at 250 g/ha, evaluated after 13 days, five point scale
Procedure: as §1

SMILES	percentage damage caused to the plant, POST Application ECHCG ([1]; applied at 250 g/ha)	percentage damage caused to the plant, POST Application AMARE ([2]; applied at 250 g/ha)	percentage damage caused to the plant, POST Application IPOHE ([3]; applied at 250 g/ha)	percentage damage caused to the plant, POST Application SOLNI (Solanum nigrum (SOLNI) [4])	percentage damage caused to the plant, POST Application SETFA (Setaria faberi (SETFA) [5]; applied at 250 g/ha)	percentage damage caused to the plant, POST Application LOLPE (Lolium perenne (LOLPE) [6])	percentage damage caused to the plant, PRE Application ECHCG ([7]; applied at 250 g/ha)	percentage damage caused to the plant, PRE Application AMARE ([8]; applied at 250 g/ha)	percentage damage caused to the plant, PRE Application IPOHE ([9]; applied at 250 g/ha)	percentage damage caused to the plant, PRE Application SOLNI (Solanum nigrum (SOLNI) [10])	percentage damage caused to the plant, PRE Application SETFA (Setaria faberi (SETFA) [11]; applied at 250 g/ha)	percentage damage caused to the plant, PRE Application LOLPE (Lolium perenne (LOLPE) [12])	percentage damage caused to the plant, POST Application ECHCG ([1]; applied at 500 g/h)	percentage damage caused to the plant, POST Application AMARE ([2]; applied at 500 g/h)	percentage damage caused to the plant, POST Application IPOHE ([3]; applied at 500 g/h)	percentage damage caused to the plant, POST Application SETFA (Setaria faberi (SETFA) [5]; applied at 500 g/h)	percentage damage caused to the plant, PRE Application ECHCG ([7]; applied at 500 g/h)	percentage damage caused to the plant, PRE Application AMARE ([8]; applied)	percentage damage caused to the plant, PRE Application IPOHE ([9]; applied at 500 g/h)	percentage damage caused to the plant, PRE Application SETFA (Setaria faberi (SETFA) [11]; applied at 500 g/h)
Cn1nnnc1NC(=O)c1cc2cnc(C(F)(F)F)nc2c(-c2ccccc2)c1C(F)(F)F [Compound 1.001]	5 (5=80-100%)	5 (5=80-100%)	5 (5=80-100%)	5 (5=80-100%)	5 (5=80-100%)	4 (4=60-79%)	5 (5=80-100%)	5 (5=80-100%)	4 (4=60-79%)	5 (5=80-100%)	3 (3=40-59%)	1 (1=0-19%)	–	–	–	–	–	–	–	–
Cc1c(C(=O)Nc2nnnn2C)cc2cnc(C(F)(F)F)nc2c1-c1ccccc1 [Compound 1.006]	–	–	–	–	–	–	–	–	–	–	–	–	5 (5=80-100%)	5 (5=80-100%)	5 (5=80-100%)	5 (5=80-100%)	2 (2=20-39%)	5 (5=80-100%)	3 (3=40-59%)	5 (5=80-100%)
Cn1nnnc1NC(=O)c1cc2cnc(C(F)(F)F)nc2c(-c2ccccc2)c1Cl [Compound 1.021]	–	–	–	–	–	–	–	–	–	–	–	–	5 (5=80-100%)	5 (5=80-100%)	5 (5=80-100%)	5 (5=80-100%)	5 (5=80-100%)	5 (5=80-100%)	5 (5=80-100%)	5 (5=80-100%)
Cn1nnnc1NC(=O)c1cc2cnc(C3CC3)nc2c(-c2ccccc2)c1Cl [Compound 1.028]	–	–	–	–	–	–	–	–	–	–	–	–	5 (5=80-100%)	5 (5=80-100%)	5 (5=80-100%)	5 (5=80-100%)	5 (5=80-100%)	5 (5=80-100%)	3 (3=40-59%)	5 (5=80-100%)
CC(C)c1ncc2cc(C(=O)Nc3nnnn3C)c(Cl)c(-c3ccccc3)c2n1 [Compound 1.035]	–	–	–	–	–	–	–	–	–	–	–	–	5 (5=80-100%)	5 (5=80-100%)	5 (5=80-100%)	5 (5=80-100%)	5 (5=80-100%)	5 (5=80-100%)	4 (4=60-79%)	5 (5=80-100%)
Cn1nnnc1NC(=O)c1cc2cncnc2c(-c2ccccc2)c1Cl [Compound 1.042]	–	–	–	–	–	–	–	–	–	–	–	–	5 (5=80-100%)	5 (5=80-100%)	5 (5=80-100%)	5 (5=80-100%)	5 (5=80-100%)	5 (5=80-100%)	5 (5=80-100%)	5 (5=80-100%)
